Reference: patent US20170000749A1, “Methods for Treating Cognitive Disorders Using Inhibitors of Histone Deacetylase” (Forum Pharmaceuticals, Inc., priority 2008, published 2017)
Where two headings read alike, the source gives them in different places.

Key:
[1] = target: one or more of HDAC-1, HDAC-2, HDAC-3, HDAC-4, HDAC-5, HDAC-6, HDAC-7, HDAC-8, HDAC-9, HDAC-10 and HDAC-11; assay: Inhibition of Histone Deacetylase Enzymatic Activity (Boc-Lys(Ac)-AMC substrate, Fluor-de-Lys developer); format: biochemical; conditions: read-out: HDAC Inhibition (IC50 μM) HDAC Enzyme
Method: The following protocol is used to assay the compounds of the disclosure.
The mixture is pre-incubated for 5 minutes at room temperature. The reaction is started by bringing the temperature to 37° C. and adding 16 μl substrate. Total reaction volume is 50 μl.
In the Tables 8, 9 and 10, A≦0.05 μM; 0.05 μM<B≦0.1 μM; 0.1 μM<C≦1 μM; and 1 μM<D≦10 μM.

[2] = tested on: HDAC activity in primary mouse cortical cultures; assay: Whole-Cell Histone Deacetylase (HDAC) Inhibition Assay in Primary Mouse Cortical Cultures; format: cell-based; conditions: whole-cell (WC), mouse cortical neurons, read-out: HDAC Inhibition (IC50 μM) WC mouse cortical neurons
Method: Primary neocortical cultures are established through the dissection of the neocortex from E17 embryos harvested from time-pregnant Balb/C mice. Following dissection, the neocortical tissue specimens undergo digestion by incubation at 37° C. for 10 minutes in dissection medium (1×HBSS/10 mM HEPES/1 mM Sodium Pyruvate) supplemented with (0.25%) Trypsin and (0.1%) DNase I. Digested tissue is washed and resuspended in plating medium (NeuroBasal/10% HS/0.5 mM L-Glutamine (Invitrogen Corporation)) for trituration. Additional plating medium is added, and the contents are passed over a 70 um cell-strainer. The cell-density is quantified using a hemacytometer, and dilutions are made to allow for the plating of 50000 cells/well/100 uL in 96-well PDL-coated plates. Plates are incubated for 4-5 hours in 37° C./5% CO2-incubator, after which time the entire volume is exchanged to feeding medium (NeuroBasal/2% B-27 Serum-free supplement/0.5 mM L-Glutamine/1% Penicillin-Streptomycin (Invitrogen Corporation)). The cultures undergo two 50% fresh feeding medium exchanges at 3 days in vitro (DIV3), and again at DIV7.
Compounds for testing are resuspended in dimethyl sulphoxide (DMSO), and further diluted in DMSO for a ten-point dose-response curve, with appropriate controls. Each master plate is assayed in triplicate. […] Three DIV9 culture plates are leveled to 50 uL/well, onto which each has overlaid 50 uL/well of the diluted daughter plate. The plates are returned to the 37° C./5% CO2-incubator for 16-18 hours.
The next step of the assay involves the exposure of a HDAC colorimetric substrate, comprising an acetylated lysine side chain, to the compound-treated neuronal cultures. Based on the ability of the compound to inhibit HDAC activity in the neuronal cultures, the substrate is deacetylated by HDACs, and subsequently sensitized. […] Compound-incubated culture plates are again leveled to 50 uL/well and 2 uL/well of 7.5 mM BOC-Lys (Ac)-AMC substrate is added and thoroughly mixed. Plates are returned to the 37° C./5% CO2-incubator for 1 hour.
The final addition to the culture plates entails treatment with a Fluor de Lys™-based developer (BIOMOL Research Laboratories, Inc.) to produce a fluorophore, which is analyzed using a spectrophotometer. The developer solution (1×Fluor de Lys™/1% NP-40/1 uM TSA in HDAC Buffer Solution) is prepared, and 50 uL/well is added to each of the wells of the culture plates. […] The plates are returned to the 37° C./5% CO2-incubator for 10-15 minutes, after which time, they are removed and set in the dark at room temperature for 5-10 minutes.
Primary neocortical cultures were established through the dissection of the neocortex from E17 embryos harvested from time-pregnant Balb/C mice. Following dissection, the neocortical tissue specimens underwent digestion by incubation at 37° C. for 10 minutes in dissection medium (1×HBSS/10 mM HEPES/1 mM Sodium Pyruvate) supplemented with (0.25%) Trypsin and (0.1%) DNase I. Digested tissue was washed and resuspended in plating medium (NeuroBasal/10% HS/0.5 mM L-Glutamine (Invitrogen Corporation)) for trituration. Additional plating medium was added, and the contents passed over a 70 um cell-strainer. The cell-density was quantified using a hemacytometer, and dilutions made to allow for the plating of 50000 cells/well/100 uL in 96-well PDL-coated plates. Plates were incubated for 4-5 hours in 37° C./5% CO2-incubator, after which time the entire volume was exchanged to feeding medium (NeuroBasal/2% B-27 Serum-free supplement/0.5 mM L-Glutamine/l % Penicillin-Streptomycin (Invitrogen Corporation)). The cultures underwent two 50% fresh feeding medium exchanges at 3 days in vitro (DIV3), and again at DIV7.
Compounds for testing were resuspended in dimethyl sulphoxide (DMSO), and further diluted in DMSO for a ten-point dose-response curve, with appropriate controls. Each master plate was assayed in triplicate.

Row | IC50 ([1]; Table 9) [µM] | IC50 ([2]; Table 9) [µM] | Structure (SMILES) | further results
1 | < 0.05 | 1 to 5 | O=C(NO)c1cnc(N2C[C@@H]3C[C@H]2CN3c2ccc(C(F)(F)F)cc2F)nc1 [2-((1S,4S)-5-(2-fluoro-4-(trifluoromethyl)phenyl)-2,5-diazabicyclo[2.2.1]heptan-2-yl)-N-hydroxypyrimidine-5-carboxamide] | –
2 | < 0.05 | 1 to 5 | O=C(NO)c1cnc(N2C[C@@H]3C[C@H]2CN3c2cc(C(F)(F)F)cc(C(F)(F)F)c2)nc1 [2-((1S,4S)-5-(3,5-bis(trifluoromethyl)phenyl)-2,5-diazabicyclo[2.2.1]heptan-2-yl)-N-hydroxypyrimidine-5-carboxamide] | –
3 | < 0.05 | < 1 | CN(C)Cc1cccc(N2C[C@@H]3C[C@H]2CN3c2ncc(C(=O)NO)cn2)c1 [2-((1S,4S)-5-(3-((dimethylamino)methyl)phenyl)-2,5-diazabicyclo[2.2.1]heptan-2-yl)-N-hydroxypyrimidine-5-carboxamide] | –
4 | < 0.05 | < 1 | O=C(NO)c1cnc(N2C[C@@H]3C[C@H]2CN3c2cccc(OC(F)F)c2)nc1 [2-((1S,4S)-5-(3-(difluoromethoxy)phenyl)-2,5-diazabicyclo[2.2.1]heptan-2-yl)-N-hydroxypyrimidine-5-carboxamide] | –
5 | < 0.05 | < 1 | CN(C)C(=O)c1cccc(N2C[C@@H]3C[C@H]2CN3c2ncc(C(=O)NO)cn2)c1 [2-((1S,4S)-5-(3-(dimethylcarbamoyl)phenyl)-2,5-diazabicyclo[2.2.1]heptan-2-yl)-N-hydroxypyrimidine-5-carboxamide] | –
6 | < 0.05 | < 1 | O=C(NO)c1cnc(N2C[C@@H]3C[C@H]2CN3c2cccc(F)c2)nc1 [2-((1S,4S)-5-(3-fluorophenyl)-2,5-diazabicyclo[2.2.1]heptan-2-yl)-N-hydroxypyrimidine-5-carboxamide] | –
7 | < 0.05 | < 1 | O=C(NO)c1cnc(N2C[C@@H]3C[C@H]2CN3c2ccc(Cl)cc2)nc1 [2-((1S,4S)-5-(4-chlorophenyl)-2,5-diazabicyclo[2.2.1]heptan-2-yl)-N-hydroxypyrimidine-5-carboxamide] | –
8 | 0.05 to 0.1 | < 1 | O=C(NO)c1cnc(N2C[C@@H]3C[C@H]2CN3c2ccc(F)cc2)nc1 [2-((1S,4S)-5-(4-fluorophenyl)-2,5-diazabicyclo[2.2.1]heptan-2-yl)-N-hydroxypyrimidine-5-carboxamide] | –
9 | < 0.05 | < 1 | O=C(NO)c1cnc(N2C[C@@H]3C[C@H]2CN3c2cccc3nonc23)nc1 [2-((1S,4S)-5-(benzo[c][1,2,5]oxadiazol-4-yl)-2,5-diazabicyclo[2.2.1]heptan-2-yl)-N-hydroxypyrimidine-5-carboxamide] | –
10 | < 0.05 | < 1 | O=C(NO)c1cnc(N2C[C@@H]3C[C@H]2CN3c2ccc3nonc3c2)nc1 [2-((1S,4S)-5-(benzo[c][1,2,5]oxadiazol-5-yl)-2,5-diazabicyclo[2.2.1]heptan-2-yl)-N-hydroxypyrimidine-5-carboxamide] | –
11 | < 0.05 | < 1 | O=C(NO)c1cnc(N2C[C@@H]3C[C@H]2CN3c2ccc3nsnc3c2)nc1 [2-((1S,4S)-5-(benzo[c][1,2,5]thiadiazol-5-yl)-2,5-diazabicyclo[2.2.1]heptan-2-yl)-N-hydroxypyrimidine-5-carboxamide] | –
12 | < 0.05 | < 1 | O=C(NO)c1cnc(N2C[C@@H]3C[C@H]2CN3c2ccc3c(c2)OCO3)nc1 [2-((1S,4S)-5-(benzo[d][1,3]dioxol-5-yl)-2,5-diazabicyclo[2.2.1]heptan-2-yl)-N-hydroxypyrimidine-5-carboxamide] | –
13 | < 0.05 | < 1 | O=C(NO)c1cnc(N2C[C@@H]3C[C@H]2CN3c2noc3ccccc23)nc1 [2-((1S,4S)-5-(benzo[d]isoxazol-3-yl)-2,5-diazabicyclo[2.2.1]heptan-2-yl)-N-hydroxypyrimidine-5-carboxamide] | –
14 | < 0.05 | 1 to 5 | O=C(NO)c1cnc(N2C[C@@H]3C[C@H]2CN3C(c2ccccc2)c2ccccc2)nc1 [2-((1S,4S)-5-benzhydryl-2,5-diazabicyclo[2.2.1]heptan-2-yl)-N-hydroxypyrimidine-5-carboxamide] | –
15 | < 0.05 | < 1 | O=C(NO)c1cnc(N2C[C@@H]3C[C@H]2CN3C(=O)c2ccccc2)nc1 [2-((1S,4S)-5-benzoyl-2,5-diazabicyclo[2.2.1]heptan-2-yl)-N-hydroxypyrimidine-5-carboxamide] | –
16 | – | – | O=C(NO)c1cnc(NC(c2ccccc2)c2ccccc2)nc1 [2-(benzhydrylamino)-N-hydroxypyrimidine-5-carboxamide] | IC50 ([1]; Table 10): < 0.05 µM; IC50 ([2]; Table 10): < 1 µM
17 | – | – | O=C(NO)c1cnc(OC(c2ccc(F)cc2)c2ccc(F)cc2)nc1 [2-(bis(4-fluorophenyl)methoxy)-N-hydroxypyrimidine-5-carboxamide] | IC50 ([1]; Table 10): 0.1 to 1 µM; IC50 ([2]; Table 10): > 15 µM
18 | – | – | O=C(NO)c1cnc(ON=C(c2ccccc2)c2ccccc2)nc1 [2-(diphenylmethyleneaminooxy)-N-hydroxypyrimidine-5-carboxamide] | IC50 ([1]; Table 10): 1 to 10 µM; IC50 ([2]; Table 10): 5 to 15 µM
19 | 0.1 to 1 | 5 to 15 | O=C(NO)c1ccc(N2C[C@@H]3C[C@H]2CN3c2cccc(C(F)(F)F)c2)cc1F [2-fluoro-N-hydroxy-4-((1S,4S)-5-(3-(trifluoromethyl)phenyl)-2,5-diazabicyclo[2.2.1]heptan-2-yl)benzamide] | –
20 | – | – | O=C(NO)c1ccc(C2Nc3ccccc3Oc3ccccc32)cc1 (centres unmarked) [4-(10,11-dihydrodibenzo[b,f][1,4]oxazepin-11-yl)-N-hydroxybenzamide] | IC50 ([1]; Table 8): < 0.05 µM; IC50 ([2]; Table 8): 1 to 5 µM
21 | 0.1 to 1 | 1 to 5 | N#Cc1cccc(N2C[C@@H]3C[C@H]2CN3c2ccc(C(=O)NO)cc2)c1 [4-((1S,4S)-5-(3-cyanophenyl)-2,5-diazabicyclo[2.2.1]heptan-2-yl)-N-hydroxybenzamide] | –
22 | – | – | O=C(NO)c1ccc(CN2C(=O)c3cccnc3N(C3CC3)c3ccccc32)cc1 [4-((11-cyclopropyl-5-oxo-5H-benzo[b]pyrido[2,3-e][1,4]diazepin-6(11H)-yl)methyl)-N-hydroxybenzamide] | IC50 ([1]; Table 10): 0.1 to 1 µM; IC50 ([2]; Table 10): 5 to 15 µM
23 | – | – | O=C(CCCCCN1C(=O)c2ccccc2N(C2CC2)c2ccccc21)NO [6-(5-cyclopropyl-11-oxo-5H-dibenzo[b,e][1,4]diazepin-10(11H)-yl)-N-hydroxyhexanamide] | IC50 ([1]; Table 10): 0.1 to 1 µM; IC50 ([2]; Table 10): 1 to 5 µM
24 | – | – | O=C(CCCCCN1c2ccccc2CCc2ccccc21)NO [6-(10,11-dihydro-5H-dibenzo[b,f]azepin-5-yl)-N-hydroxyhexanamide] | IC50 ([1]; Table 10): < 0.05 µM; IC50 ([2]; Table 10): 1 to 5 µM

Row | Structure (SMILES) | IC50 ([1]; Table 9) [µM] | IC50 ([2]; Table 9) [µM] | further results
25 | O=C(NO)c1cnc(N2C[C@@H]3C[C@H]2CN3Cc2ccccc2)nc1 [2-((1S,4S)-5-benzyl-2,5-diazabicyclo[2.2.1]heptan-2-yl)-N-hydroxypyrimidine-5-carboxamide] | 0.1 to 1 | 1 to 5 | –
